# Reference: PubChem BioAssay (NCI)
#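 Exposure lasted 48 hours, with cells grown in 96-well plates and compounds tested at five concentrations. GI50 = concentration required for 50% inhibition of growth. TGI: total growth inhibition.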
# Tests used:
# Experiment in all cases: growth of human tumour cells (NCI), 48 h
# [1] = system: SF-295 CNS
# [2] = system: NCI-H23 lung
# [3] = system: ACHN renal
# [4] = system: SNB-75 CNS
# [5] = system: NCI-H522 lung
# [6] = system: UACC-257 melanoma
# [7] = system: SNB-19 CNS
# [8] = system: CCRF-CEM leukemia
# [9] = system: NCI-H226 lung
# [10] = system: PC-3 prostate
# [11] = system: UACC-62 melanoma
# [12] = system: OVCAR-4 ovarian
# [13] = system: COLO 205 colon
# [14] = system: BT-549 breast
# [15] = system: K-562 leukemia
# [16] = system: RPMI-8226 leukemia
# [17] = system: MCF7 breast
# [18] = system: RXF 393 renal
# [19] = system: HCT-116 colon
# [20] = system: EKVX NSCLC
# [21] = system: TK-10 renal
# [22] = system: SF-268 CNS
# [23] = system: T-47D breast
# [24] = system: SK-MEL-2 melanoma
# [25] = system: U251 CNS
# [26] = system: MDA-MB-231 breast
# [27] = system: DU-145 prostate
# [28] = system: M14 melanoma
# [29] = system: OVCAR-8 ovarian
# [30] = system: SW-620 colon
# [31] = system: LOX IMVI melanoma
# [32] = system: SR leukemia
# [33] = system: SN12C renal
# [34] = system: IGROV1 ovarian
# [35] = system: HS 578T breast
# [36] = system: CAKI-1 renal
# [37] = system: 786-0 renal
# [38] = system: KM12 colon
# [39] = system: OVCAR-5 ovarian
# [40] = system: HT29 colon
# [41] = system: HCC-2998 colon
# [42] = system: SK-OV-3 ovarian
# [43] = system: SF-539 CNS
# [44] = system: A549 NSCLC
# [45] = system: HOP-92 NSCLC
# [46] = system: HL-60(TB) leukemia
# [47] = system: A498 renal
# [48] = system: NCI-H460 lung
# [49] = system: SK-MEL-28 melanoma
# [50] = system: OVCAR-3 ovarian
# [51] = system: SK-MEL-5 melanoma
# [52] = system: NCI/ADR-RES ovarian
# [53] = system: HOP-62 NSCLC
# [54] = system: HCT-15 colon
# [55] = system: UO-31 renal
# [56] = system: MDA-MB-435
# [57] = system: MOLT-4 leukemia
# [58] = system: MALME-3M melanoma
smiles,measurement,setting,value
CCCCCCCCCCCCCCCCCC(=O)[O][Sn]([CH2]CCC)([CH2]CCC)[CH2]CCC,GI50,[1],162 nM
same,TGI,[1],435 nM
same,GI50,[2],127 nM
same,TGI,[2],287 nM
same,GI50,[3],163 nM
same,TGI,[3],334 nM
same,GI50,[4],124 nM
same,TGI,[4],269 nM
same,GI50,[5],140 nM
same,TGI,[5],318 nM
same,GI50,[6],144 nM
same,TGI,[6],293 nM
same,GI50,[7],167 nM
same,TGI,[7],338 nM
same,GI50,[8],170 nM
same,GI50,[9],162 nM
same,TGI,[9],319 nM
same,GI50,[10],180 nM
same,TGI,[10],463 nM
same,GI50,[11],176 nM
same,TGI,[11],450 nM
same,GI50,[12],108 nM
same,TGI,[12],245 nM
same,GI50,[13],171 nM
same,TGI,[13],373 nM
same,GI50,[14],138 nM
same,TGI,[14],287 nM
same,GI50,[15],142 nM
same,TGI,[15],> 100000 nM
same,GI50,[16],139 nM
same,TGI,[16],602 nM
same,GI50,[17],134 nM
same,TGI,[17],267 nM
same,GI50,[18],100 nM
same,TGI,[18],253 nM
same,GI50,[19],117 nM
same,TGI,[19],250 nM
same,GI50,[20],71.3 nM
same,TGI,[20],297 nM
same,GI50,[21],164 nM
same,TGI,[21],311 nM
same,GI50,[22],141 nM
same,TGI,[22],337 nM
same,GI50,[23],124 nM
same,TGI,[23],293 nM
same,GI50,[24],171 nM
same,TGI,[24],369 nM
same,GI50,[25],153 nM
same,TGI,[25],319 nM
same,GI50,[26],125 nM
same,TGI,[26],361 nM
same,GI50,[27],136 nM
same,TGI,[27],271 nM
same,GI50,[28],169 nM
same,TGI,[28],320 nM
same,GI50,[29],197 nM
same,TGI,[29],451 nM
same,GI50,[30],137 nM
same,TGI,[30],289 nM
same,GI50,[31],133 nM
same,TGI,[31],380 nM
same,GI50,[32],73.8 nM
same,TGI,[32],388 nM
same,GI50,[33],152 nM
same,TGI,[33],403 nM
same,GI50,[34],154 nM
same,TGI,[34],367 nM
same,GI50,[35],217 nM
same,TGI,[35],752 nM
same,GI50,[36],52.4 nM
same,TGI,[36],214 nM
same,GI50,[37],152 nM
same,TGI,[37],305 nM
same,GI50,[38],124 nM
same,TGI,[38],266 nM
same,GI50,[39],137 nM
same,TGI,[39],340 nM
same,GI50,[40],113 nM
same,TGI,[40],311 nM
same,GI50,[41],139 nM
same,TGI,[41],279 nM
same,GI50,[42],143 nM
same,TGI,[42],288 nM
same,GI50,[43],181 nM
same,TGI,[43],377 nM
same,GI50,[44],153 nM
same,TGI,[44],317 nM
same,GI50,[45],90.8 nM
same,TGI,[45],273 nM
same,GI50,[46],179 nM
same,TGI,[46],489 nM
same,GI50,[47],90.4 nM
same,TGI,[47],232 nM
same,GI50,[48],109 nM
same,TGI,[48],251 nM
same,GI50,[49],159 nM
same,TGI,[49],310 nM
same,GI50,[50],126 nM
same,TGI,[50],254 nM
same,GI50,[51],141 nM
same,TGI,[51],272 nM
same,GI50,[52],177 nM
same,TGI,[52],438 nM
same,GI50,[53],158 nM
same,TGI,[53],332 nM
same,GI50,[54],146 nM
same,TGI,[54],380 nM
same,GI50,[55],161 nM
same,TGI,[55],340 nM
same,GI50,[56],149 nM
same,TGI,[56],441 nM
same,GI50,[57],237 nM
same,GI50,[58],141 nM
same,TGI,[58],327 nM
NC(=O)c1ncn(C2OC(CO)C(O)C2O)n1 (stereo not drawn),GI50,[2],> 100000 nM
same,TGI,[2],> 100000 nM
same,GI50,[3],59800 nM
same,TGI,[3],> 100000 nM
same,GI50,[5],> 100000 nM
same,TGI,[5],> 100000 nM
same,GI50,[6],> 100000 nM
same,TGI,[6],> 100000 nM
same,GI50,[8],4730 nM
same,TGI,[8],49600 nM
same,GI50,[9],> 100000 nM
same,TGI,[9],> 100000 nM
same,GI50,[10],59600 nM
same,TGI,[10],> 100000 nM
same,GI50,[11],> 100000 nM
same,TGI,[11],> 100000 nM
same,GI50,[12],> 100000 nM
same,TGI,[12],> 100000 nM
same,GI50,[13],55200 nM
same,TGI,[13],> 100000 nM
same,GI50,[14],> 100000 nM
same,TGI,[14],> 100000 nM
same,GI50,[15],51900 nM
same,TGI,[15],> 100000 nM
same,GI50,[16],80500 nM
same,TGI,[16],> 100000 nM
same,GI50,[17],36400 nM
same,TGI,[17],> 100000 nM
same,GI50,[18],> 100000 nM
same,TGI,[18],> 100000 nM
same,GI50,[19],45100 nM
same,TGI,[19],> 100000 nM
same,GI50,[20],70200 nM
same,TGI,[20],> 100000 nM
same,GI50,[21],> 100000 nM
same,TGI,[21],> 100000 nM
same,GI50,[23],49200 nM
same,TGI,[23],> 100000 nM
same,GI50,[24],> 100000 nM
same,TGI,[24],> 100000 nM
same,GI50,[26],> 100000 nM
same,TGI,[26],> 100000 nM
same,GI50,[27],39600 nM
same,TGI,[27],> 100000 nM
same,GI50,[28],> 100000 nM
same,TGI,[28],> 100000 nM
same,GI50,[29],45400 nM
same,TGI,[29],> 100000 nM
same,GI50,[30],22800 nM
same,TGI,[30],> 100000 nM
same,GI50,[31],53600 nM
same,TGI,[31],> 100000 nM
same,GI50,[32],> 100000 nM
same,TGI,[32],> 100000 nM
same,GI50,[33],85000 nM
same,TGI,[33],> 100000 nM
same,GI50,[34],> 100000 nM
same,TGI,[34],> 100000 nM
same,GI50,[35],> 100000 nM
same,TGI,[35],> 100000 nM
same,GI50,[36],57200 nM
same,TGI,[36],> 100000 nM
same,GI50,[37],> 100000 nM
same,TGI,[37],> 100000 nM
same,GI50,[38],> 100000 nM
same,TGI,[38],> 100000 nM
same,GI50,[39],> 100000 nM
same,TGI,[39],> 100000 nM
same,GI50,[40],14200 nM
same,TGI,[40],> 100000 nM
same,GI50,[41],> 100000 nM
same,TGI,[41],> 100000 nM
same,GI50,[42],> 100000 nM
same,TGI,[42],> 100000 nM
same,GI50,[44],62000 nM
same,TGI,[44],> 100000 nM
same,GI50,[45],> 100000 nM
same,TGI,[45],> 100000 nM
same,GI50,[46],> 100000 nM
same,TGI,[46],> 100000 nM
same,GI50,[47],> 100000 nM
same,TGI,[47],> 100000 nM
same,GI50,[48],64200 nM
same,TGI,[48],> 100000 nM
same,GI50,[49],> 100000 nM
same,TGI,[49],> 100000 nM
same,GI50,[50],74900 nM
same,TGI,[50],> 100000 nM
same,GI50,[51],> 100000 nM
same,TGI,[51],> 100000 nM
same,GI50,[52],54600 nM
same,TGI,[52],> 100000 nM
same,GI50,[53],> 100000 nM
same,TGI,[53],> 100000 nM
same,GI50,[54],38400 nM
same,TGI,[54],> 100000 nM
same,GI50,[55],> 100000 nM
same,TGI,[55],> 100000 nM
same,GI50,[56],> 100000 nM
same,TGI,[56],> 100000 nM
same,GI50,[57],52900 nM
same,TGI,[57],> 100000 nM
same,GI50,[58],> 100000 nM
same,TGI,[58],> 100000 nM
